Series [1] can be described thus: Thiophilic metal precipitation by ligand, panel of metal ions. Type of series: physicochemical. Particulars: spectroscopic analyses; did not correlate with Ksp. The protocol:
(§1) General procedure for thiophilic metal precipitation. A 10 μL aliquot of a 200 mM stock of metal ion in water was incubated at room temperature with 200 μL of a 10 mM stock of ligand 3a in CH3CN. Red precipitates from 3a appeared upon increasing the amount of water in the final reaction mixture to over 20% (v/v). The formation of these red precipitates provided an ideal tool for verification of sample quality. Red precipitates from 3a were readily removed by triturating the precipitate with acetonitrile.

A short description of series [2]: Heavy metal competitions (precipitation in the presence of other metal ions). Type of series: physicochemical. Particulars: mixtures containing Cu^2+. As for the experimental part: (§2) Determination of solubility products (Ksp). Weight analysis (FIG. 2A): Ksp values were determined either by weighing the amount of precipitate 4a. Scale-up was required to provide sufficient material for analysis on conventional microbalances. The following procedure was used for this analysis: a 100 μL aliquot of a 200 mM stock of metal ion in water was incubated at room temperature with 2 mL of a 10 mM stock of ligand 3a in acetonitrile. After 10 minutes the precipitate was isolated by centrifugation for 5 min at 2,000×g, washed with acetonitrile (5 ml), methanol (5 ml) and dried in vacuo. Spectrophotometric analysis (FIG. 2B): A 10 μL aliquot of a 200 mM stock of metal ion in water was added to 200 μL of a 10 mM stock of ligand 3a in acetonitrile in a spin filter (Millipore). After 10 minutes at rt, the precipitate was removed by centrifugation at 2,000×g. Spectroscopic analysis of the supernatant was performed on a conventional microarray reader (PerSeptive Biosystems CytoFluor or Perkin Elmer HST 7000 plate reader).
Heavy metal competitions. A 167 μL aliquot of a 20 mM stock of metal ion in water was incubated at room temperature with 333 μL of a 10 mM stock of ligand 3a in acetonitrile. […] The supernatant was analyzed on a PerSeptive Biosystems CytoFluor or Perkin Elmer HST 7000 plate reader using excitation at 510 nm. […]

A short description of series [3]: Precipitation of free ligand from aqueous CH3CN. The format is physicochemical. As to conditions: 10 mM 3a stock in CH3CN, room temperature. As for the experimental part:
as §1

The nature of series [4]: Determination of solubility products (Ksp), reproducibility. Particulars: concentrations 1 mM-0.1 μM, pH 3-10, temperature 0-50° C. The format is physicochemical. As for the experimental part:
as §2

Series [5] can be described thus: Determination of the extent of metal precipitation (vapor atomic absorption of supernatant). Type of series: physicochemical. As to conditions: after reacting 6.7±0.01 mM Hg(OAc)2 with 6.7±0.01 mM 3a. The protocol: Determination of the extent of metal precipitation. An 167 μL aliquot of a 20 mM stock of Hg(OAc)2 in water was incubated at room temperature with 333 μL of a 10 mM stock of ligand 3 in CH3CN. Precipitation occurred immediately. After 5 minutes the sample was centrifuged for 5 min at 14,000×g. The supernatant was removed and an aliquot submitted to vapor atomic absorption analysis (Galbraith Laboratories, Knoxyille, Tenn.).

Series [6] in a line: Thiophilic metal precipitation by ligand. The format is physicochemical. Particulars: for metal salt concentration at which precipitation was visually apparent: 10% aqueous CH3CN. As for the experimental part:
as §1

For series [7] the following is noted: cited from earlier work.

Here are results for 3 compounds from patent publication US20080241943A1, “Subnanomolar Precipitator of Thiophilic Metals” (The Scripps Research Institute, priority 2004, published 2008).

Consider `S=C1SC(c2ccccc2)(c2ccccc2)c2ccccc21` [3a, 3,3-Diphenylbenzo[c]thiophene-1(3H)-thione], for which, in series [1], the “rate of precipitation (order of metal ions)” value is reported as “Hg^2+>Pb^2+>Cd^2+>(Au^3+˜Cu^2+)>(Pd^2+˜Ni^2+)>(Co^2+˜Mo^2+˜Pt^2+)”. Moreover, in series [2], the “Cu^2+ tolerated in analysis of Hg^2+, Pb^2+ and Cd^2+” value is on record as 500 equivalents. In series [3], the “amount of water in the final reaction mixture at which red precipitates from 3a appeared” value is given as “over 20 % (v/v)”. Moreover, the “deviation of Ksp values” in series [4] is recorded as no more than 1%. Also, the “amount of Hg^2+ left in supernatant” value in series [5] is 0.58 ± 0.03 µM. For the same compound, the “metal salt concentration at which precipitation was visually apparent” value in series [6] (CdCl2 added to 25 μM 3a) came to 50 µM; in series [6] (Hg(OAc)2 added to 1 μM 3a), 2 µM; in series [6] (Pb(OAc)2 added to 5 μM 3a), 10 µM.
As to `CCCCCCCCCCc1ccc(C2(c3ccc(CCCCCCCCCC)cc3)SC(=S)c3ccccc32)cc1` [3b, 3,3-Bis(4-decylphenyl)benzo[c]thiophene-1(3H)-thione], the “induction time of precipitation” value in series [6] (by Hg^2+) and in series [6] (by Pb^2+) was greater than 5 min in each case.
As to `O=C(O)CN(CC(=O)O)c1ccc(-c2c3cc(F)c(=O)cc-3oc3cc(O)c(F)cc23)cc1OCCOc1cc([N+](=O)[O-])ccc1N(CC(=O)O)CC(=O)O` [Fluo-5N], the “affinity to Cd^2+ relative to La^3+” value in series [7] (at 1 μM) was “O-fold”. The “affinity for La^3+ over Cd^2+” value in series [7] (at 100 μM) is reported as 2 fold.
